Experimental data published in US4287190A, “Complexes of bivalent copper” (priority 1979, dated 1981).

Experiments:
Zymosan paw oedema = experiment: Zymosan-induced paw oedema in rats, topically applied copper-salicylates; settings: topical, DMSO-glycerol 4:1 v/v, 5 ml/kg
Carrageenan paw oedema = experiment: Carrageenan-induced paw oedema in rats, topically applied copper-salicylates; settings: topical
Experimental: All materials applied to shaved dorsal skin
in vehicle (= DMSO--glycerol), 4:1 v/v, 5 ml/kg except as
*Vehicle = ethanolglycerol (4:1 v/v)

[1] = test system: polyarthritis induced in rats with Mycobacterium tuberculosis in squalane; experiment: Polyarthritis induced with Mycobacterium tuberculosis in squalane; format: in vivo; settings: Cu[H Sal]2. DMSO formulation
[2] = test system: artificially induced inflammation in rats (sodium carrageenan); experiment: Carrageenan foot swelling after topical treatment (Example 5, FIG. 2); format: in vivo, Male Wistar rats; settings: topical, 154, 231, 462 and 770 mg, about 6 hours before carrageenan
Experimental: Male Wistar rats (average weight 250 g) were anaesthetised with diethyl ether and an area of c. 20 sq.cm was shaven high on their backs. The rats were then separated into 7 groups. Group 1, the control rats were not treated. Group 2 rats were treated by the application of a mixture of alcohol and glycerol (4:1), the carrier used for the compound Cu[H Sal]2. C2 H5 OH. Group 3 rats were treated with a 7% w/v solution of salicylic acid in a mixture of alcohol and glycerol (4:1). Group 4, 5, 6 and 7 rats were treated with amounts of Cu[H Sal]2. C2 H5 OH composition prepared according to example 3 containing 154 mg, 231 mg, 462 mg, and 770 mg respectively, of Cu[H Sal]2. C2 H5 OH.
About 6 hours after the topical treatment of the rats, inflammation was induced in a foot of each rat in each of the groups by the injection of 0.1 ml of 1% saline solution of sodium carrageenan into a foot pad of each rat. The inflammation of the feet of the rats in each group was then monitored by the swelling of the feet with a micrometer screw-gauge.
The results are shown in FIG. 2 wherein the curves represent the increase in paw thickness of the rats with time after the injection of the inflammatory agent. The curves 1 to 7 represent the swelling of the paws of the rats of groups 1 to 7 respectively.

[3] = Wistar, 2 Hour, DMSO-glycerol 4:1 v/v, 5 ml/kg
[4] = Wistar, 4 Hour, DMSO-glycerol 4:1 v/v, 5 ml/kg
[5] = DA × Lewis, 2 Hour, DMSO-glycerol 4:1 v/v, 5 ml/kg
[6] = DA × Lewis, 4 Hour, DMSO-glycerol 4:1 v/v, 5 ml/kg

Row | Compound | % Inhibition of paw oedema induced with Zymosan (Zymosan paw oedema; DA × Lewis, 2 Hour) [%] | % Inhibition of paw oedema induced with Zymosan (Zymosan paw oedema; DA × Lewis, 4 Hour) [%] | % Inhibition of paw oedema induced with Zymosan (Zymosan paw oedema; Wistar, 1 Hour) [%] | % Inhibition of paw oedema induced with Zymosan (Zymosan paw oedema; Wistar, 2 Hour) [%] | % Inhibition of paw oedema induced with Carrageenan (Carrageenan paw oedema; [3]) [%] | % Inhibition of paw oedema induced with Carrageenan (Carrageenan paw oedema; [4]) [%] | effect on the progress of polyarthritis [1] | % Inhibition of paw oedema induced with Carrageenan (Carrageenan paw oedema; [5]) [%] | % Inhibition of paw oedema induced with Carrageenan (Carrageenan paw oedema; [6]) [%] | anti-inflammatory effect (increase in paw thickness with time) [2] | % Inhibition of paw oedema induced with Carrageenan (Carrageenan paw oedema; Wistar, 2 Hour, ethanol-glycerol 4:1 v/v, 5 ml/kg) [%] | % Inhibition of paw oedema induced with Carrageenan (Carrageenan paw oedema; Wistar, 2 Hour, ethanol-glycerol 4:1 v/v, 15 ml/kg) [%] | % Inhibition of paw oedema induced with Carrageenan (Carrageenan paw oedema; Wistar, 4 Hour, ethanol-glycerol 4:1 v/v, 5 ml/kg) [%] | % Inhibition of paw oedema induced with Carrageenan (Carrageenan paw oedema; Wistar, 4 Hour, ethanol-glycerol 4:1 v/v, 15 ml/kg) [%]
1 | CC(=O)[O-].CC(=O)[O-].[Cu+2] [Cu(OAc)] | 14 | 04 | 12 | 12 | 04 | 11 |  |  |  |  |  |  |  | 
2 | CS(C)=O.O=C([O-])c1ccccc1O.O=C([O-])c1ccccc1O.[Cu+2] [Cu[H Sal]2 . DMSO, copper salicylate DMSO] | 36 | 22 | 43 | 21 | 46 | 53 | effective on the progress of polyarthritis | 47 | 39 |  |  |  |  | 
3 | O=C(O)c1ccccc1O [Salicylic acid (alone), Salicylic acid] | -08 | -05 | 22 | 16 | 14 | 18 |  | 44 | 32 |  |  |  |  | 
4 | copper salicylate ethanolate [Cu[H Sal]2. C2 H5 OH] |  |  |  |  |  |  |  |  |  | clearly shows the anti-inflammatory effect | 24 | 58 | 32 | 53
